We go through three molecules from PubChem BioAssay AID272 (DTP/NCI, 2004).

Several values for one entry are separate records, joined by “and”; a condition that tells them apart may be missing. Equal values may be shown once. Results filed as inconclusive are left out.

The subject of this assay is Lewis lung carcinoma i.m., BDF1 mice, T/C %. Kind of assay: NCI In Vivo Anticancer Drug Screen. Data for tumor model Lewis Lung Carcinoma (intramuscular) in B6D2F1 (BDF1) mice. An outline of the steps:
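Transplantable tumour model; readout survival or tumour size; value = treated (T) / vehicle control (C).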

As for `CC(CN1CC(=O)NC(=O)C1)N1CC(=O)NC(=O)C1` (stereo unspecified), the T/C by setting is: (endpoint: mean tumor weight, dose: 6.25 mg/kg/injection, schedule: Q01DX005 (ip), vehicle: Klucel (hydroxypropylcellulose) (HPC), higher = larger tumour) 61 % of control; (endpoint: mean tumor weight, dose: 6.25 mg/kg/injection, schedule: Q01DX009 (ip), vehicle: Klucel (hydroxypropylcellulose) (HPC), higher = larger tumour) 49 % of control; (endpoint: mean tumor weight, dose: 6.25 mg/kg/injection, schedule: Q01DX011 (ip), vehicle: Klucel (hydroxypropylcellulose) (HPC), higher = larger tumour) 73 % of control; (endpoint: mean tumor weight, dose: 6.25 mg/kg/injection, schedule: Q01DX017 (ip), vehicle: Klucel (hydroxypropylcellulose) (HPC), higher = larger tumour) 57 % of control; (endpoint: mean tumor weight, dose: 12.5 mg/kg/injection, schedule: Q01DX005 (ip), vehicle: Klucel (hydroxypropylcellulose) (HPC), higher = larger tumour) 62 % of control; (endpoint: mean tumor weight, dose: 12.5 mg/kg/injection, schedule: Q01DX009 (ip), vehicle: Klucel (hydroxypropylcellulose) (HPC), higher = larger tumour) 59 % of control. Further, the T/C was 52 % of control (endpoint: mean tumor weight, dose: 12.5 mg/kg/injection, schedule: Q01DX011 (ip), vehicle: Klucel (hydroxypropylcellulose) (HPC), higher = larger tumour); 83 % of control and 85 % of control (endpoint: mean tumor weight, dose: 12.5 mg/kg/injection, schedule: Q01DX011 (ip), vehicle: steriod suspending solution, higher = larger tumour); 49 % of control (endpoint: mean tumor weight, dose: 12.5 mg/kg/injection, schedule: Q01DX017 (ip), vehicle: Klucel (hydroxypropylcellulose) (HPC), higher = larger tumour); 50 % of control (endpoint: mean tumor weight, dose: 25.0 mg/kg/injection, schedule: Q01DX005 (ip), vehicle: Klucel (hydroxypropylcellulose) (HPC), higher = larger tumour); 26 % of control (endpoint: mean tumor weight, dose: 25.0 mg/kg/injection, schedule: Q01DX009 (ip), vehicle: Klucel (hydroxypropylcellulose) (HPC), higher = larger tumour); 39 % of control (endpoint: mean tumor weight, dose: 25.0 mg/kg/injection, schedule: Q01DX011 (ip), vehicle: Klucel (hydroxypropylcellulose) (HPC), higher = larger tumour). The T/C (endpoint: mean tumor weight, dose: 25.0 mg/kg/injection, schedule: Q01DX017 (ip), vehicle: Klucel (hydroxypropylcellulose) (HPC), higher = larger tumour) was 44 % of control; the T/C (endpoint: mean tumor weight, dose: 25.0 mg/kg/injection, schedule: Q04DX003 (ip), vehicle: Klucel (hydroxypropylcellulose) (HPC), higher = larger tumour) was 99 % of control; the T/C (endpoint: mean tumor weight, dose: 25.0 mg/kg/injection, schedule: Q04DX005 (ip), vehicle: Klucel (hydroxypropylcellulose) (HPC), higher = larger tumour) is 104 % of control; the T/C (endpoint: mean tumor weight, dose: 50.0 mg/kg/injection, schedule: Q01DX005 (ip), vehicle: Klucel (hydroxypropylcellulose) (HPC), higher = larger tumour) was 49 % of control; the T/C (endpoint: mean tumor weight, dose: 50.0 mg/kg/injection, schedule: Q01DX009 (ip), vehicle: Klucel (hydroxypropylcellulose) (HPC), higher = larger tumour) is 32 % of control; the T/C (endpoint: mean tumor weight, dose: 50.0 mg/kg/injection, schedule: Q01DX011 (ip), vehicle: Klucel (hydroxypropylcellulose) (HPC), higher = larger tumour) was 14 % of control. Besides, the T/C was 80 % of control (endpoint: mean tumor weight, dose: 50.0 mg/kg/injection, schedule: Q04DX003 (ip), vehicle: Klucel (hydroxypropylcellulose) (HPC), higher = larger tumour); 85 % of control (endpoint: mean tumor weight, dose: 50.0 mg/kg/injection, schedule: Q04DX005 (ip), vehicle: Klucel (hydroxypropylcellulose) (HPC), higher = larger tumour); 21 % of control (endpoint: mean tumor weight, dose: 100.0 mg/kg/injection, schedule: Q01DX005 (ip), vehicle: Klucel (hydroxypropylcellulose) (HPC), higher = larger tumour); 70 % of control and 80 % of control (endpoint: mean tumor weight, dose: 100.0 mg/kg/injection, schedule: Q04DX003 (ip), vehicle: Klucel (hydroxypropylcellulose) (HPC), higher = larger tumour); 78 % of control (endpoint: mean tumor weight, dose: 100.0 mg/kg/injection, schedule: Q04DX005 (ip), vehicle: Klucel (hydroxypropylcellulose) (HPC), higher = larger tumour); 50 % of control and 58 % of control (endpoint: mean tumor weight, dose: 200.0 mg/kg/injection, schedule: Q04DX003 (ip), vehicle: Klucel (hydroxypropylcellulose) (HPC), higher = larger tumour). Moreover, the T/C by setting is: (endpoint: mean tumor weight, dose: 200.0 mg/kg/injection, schedule: Q04DX005 (ip), vehicle: Klucel (hydroxypropylcellulose) (HPC), higher = larger tumour) 56 % of control; (endpoint: mean tumor weight, dose: 400.0 mg/kg/injection, schedule: Q04DX003 (ip), vehicle: Klucel (hydroxypropylcellulose) (HPC), higher = larger tumour) 6 % of control; (endpoint: mean tumor weight, dose: 400.0 mg/kg/injection, schedule: Q04DX005 (ip), vehicle: Klucel (hydroxypropylcellulose) (HPC), higher = larger tumour) 7 % of control; (endpoint: median survival time, dose: 6.25 mg/kg/injection, schedule: Q01DX005 (ip), vehicle: Klucel (hydroxypropylcellulose) (HPC), higher = longer survival) 111 % of control; (endpoint: median survival time, dose: 6.25 mg/kg/injection, schedule: Q01DX009 (ip), vehicle: Klucel (hydroxypropylcellulose) (HPC), higher = longer survival) 105 % of control; (endpoint: median survival time, dose: 6.25 mg/kg/injection, schedule: Q01DX011 (ip), vehicle: Klucel (hydroxypropylcellulose) (HPC), higher = longer survival) 117 % of control. Further, the T/C by setting is: (endpoint: median survival time, dose: 6.25 mg/kg/injection, schedule: Q01DX017 (ip), vehicle: Klucel (hydroxypropylcellulose) (HPC), higher = longer survival) 113 % of control; (endpoint: median survival time, dose: 12.5 mg/kg/injection, schedule: Q01DX005 (ip), vehicle: Klucel (hydroxypropylcellulose) (HPC), higher = longer survival) 96 % of control; (endpoint: median survival time, dose: 12.5 mg/kg/injection, schedule: Q01DX009 (ip), vehicle: Klucel (hydroxypropylcellulose) (HPC), higher = longer survival) 100 % of control; (endpoint: median survival time, dose: 12.5 mg/kg/injection, schedule: Q01DX011 (ip), vehicle: Klucel (hydroxypropylcellulose) (HPC), higher = longer survival) 92 % of control; (endpoint: median survival time, dose: 12.5 mg/kg/injection, schedule: Q01DX017 (ip), vehicle: Klucel (hydroxypropylcellulose) (HPC), higher = longer survival) 86 % of control; (endpoint: median survival time, dose: 15.0 mg/kg/injection, schedule: Q01DX011 (ip), vehicle: carboxymethylcellulose (CMC), higher = longer survival) 100 % of control. The T/C was 94 % of control (endpoint: median survival time, dose: 25.0 mg/kg/injection, schedule: Q01DX005 (ip), vehicle: Klucel (hydroxypropylcellulose) (HPC), higher = longer survival); 111 % of control (endpoint: median survival time, dose: 25.0 mg/kg/injection, schedule: Q01DX009 (ip), vehicle: Klucel (hydroxypropylcellulose) (HPC), higher = longer survival); 98 % of control (endpoint: median survival time, dose: 25.0 mg/kg/injection, schedule: Q01DX011 (ip), vehicle: Klucel (hydroxypropylcellulose) (HPC), higher = longer survival); 98 % of control (endpoint: median survival time, dose: 25.0 mg/kg/injection, schedule: Q04DX003 (ip), vehicle: Klucel (hydroxypropylcellulose) (HPC), higher = longer survival); 103 % of control (endpoint: median survival time, dose: 25.0 mg/kg/injection, schedule: Q04DX005 (ip), vehicle: Klucel (hydroxypropylcellulose) (HPC), higher = longer survival); 105 % of control (endpoint: median survival time, dose: 30.0 mg/kg/injection, schedule: Q01DX011 (ip), vehicle: carboxymethylcellulose (CMC), higher = longer survival). Further, the T/C runs as follows: (endpoint: median survival time, dose: 50.0 mg/kg/injection, schedule: Q01DX005 (ip), vehicle: Klucel (hydroxypropylcellulose) (HPC), higher = longer survival) 105 % of control; (endpoint: median survival time, dose: 50.0 mg/kg/injection, schedule: Q01DX009 (ip), vehicle: Klucel (hydroxypropylcellulose) (HPC), higher = longer survival) 94 % of control; (endpoint: median survival time, dose: 50.0 mg/kg/injection, schedule: Q01DX011 (ip), vehicle: Klucel (hydroxypropylcellulose) (HPC), higher = longer survival) 113 % of control; (endpoint: median survival time, dose: 50.0 mg/kg/injection, schedule: Q04DX003 (ip), vehicle: Klucel (hydroxypropylcellulose) (HPC), higher = longer survival) 96 % of control; (endpoint: median survival time, dose: 50.0 mg/kg/injection, schedule: Q04DX005 (ip), vehicle: Klucel (hydroxypropylcellulose) (HPC), higher = longer survival) 100 % of control; (endpoint: median survival time, dose: 100.0 mg/kg/injection, schedule: Q01DX001 (ip), vehicle: other, higher = longer survival) 89 % of control. The T/C (endpoint: median survival time, dose: 100.0 mg/kg/injection, schedule: Q01DX001 (ip), vehicle: steriod suspending solution, higher = longer survival) is 93 % of control; the T/C (endpoint: median survival time, dose: 100.0 mg/kg/injection, schedule: Q01DX005 (ip), vehicle: Klucel (hydroxypropylcellulose) (HPC), higher = longer survival) was 119 % of control; the T/C (endpoint: median survival time, dose: 100.0 mg/kg/injection, schedule: Q04DX003 (ip), vehicle: Klucel (hydroxypropylcellulose) (HPC), higher = longer survival) is 90 % of control and 108 % of control (2×); the T/C (endpoint: median survival time, dose: 100.0 mg/kg/injection, schedule: Q04DX005 (ip), vehicle: Klucel (hydroxypropylcellulose) (HPC), higher = longer survival) was 101 % of control; the T/C (endpoint: median survival time, dose: 200.0 mg/kg/injection, schedule: Q01DX001 (ip), vehicle: other, higher = longer survival) was 86 % of control; the T/C (endpoint: median survival time, dose: 200.0 mg/kg/injection, schedule: Q01DX001 (ip), vehicle: steriod suspending solution, higher = longer survival) was 93 % of control. The T/C by setting is: (endpoint: median survival time, dose: 200.0 mg/kg/injection, schedule: Q04DX003 (ip), vehicle: Klucel (hydroxypropylcellulose) (HPC), higher = longer survival) 111 % of control and 115 % of control and 117 % of control; (endpoint: median survival time, dose: 200.0 mg/kg/injection, schedule: Q04DX005 (ip), vehicle: Klucel (hydroxypropylcellulose) (HPC), higher = longer survival) 115 % of control; (endpoint: median survival time, dose: 400.0 mg/kg/injection, schedule: Q01DX001 (ip), vehicle: other, higher = longer survival) 76 % of control; (endpoint: median survival time, dose: 400.0 mg/kg/injection, schedule: Q04DX003 (ip), vehicle: Klucel (hydroxypropylcellulose) (HPC), higher = longer survival) 123 % of control; (endpoint: median survival time, dose: 800.0 mg/kg/injection, schedule: Q01DX001 (ip), vehicle: other, higher = longer survival) 78 % of control; (endpoint: median survival time, dose: 800.0 mg/kg/injection, schedule: Q01DX001 (ip), vehicle: steriod suspending solution, higher = longer survival) 87 % of control. The T/C (endpoint: median survival time, dose: 800.0 mg/kg/injection, schedule: Q04DX003 (ip), vehicle: Klucel (hydroxypropylcellulose) (HPC), higher = longer survival) was 29 % of control.
Take `Cc1c(N)nc(C(CC(N)=O)NCC(N)C(N)=O)nc1C(=O)NC(C(=O)NC(C)C(O)C(C)C(=O)NC(C(=O)NCCc1nc(-c2nc(C(=O)NCCC[S+](C)C)cs2)cs1)C(C)O)C(OC1OC(CO)C(O)C(O)C1OC1OC(CO)C(O)C(OC(N)=O)C1O)c1cnc[nH]1` (stereo unspecified): the T/C runs as follows: (endpoint: median survival time, dose: 6.5 mg/kg/injection, schedule: Q01DX011 (ip), vehicle: saline, higher = longer survival) 152 % of control; (endpoint: median survival time, dose: 10.8 mg/kg/injection, schedule: Q01DX011 (ip), vehicle: saline, higher = longer survival) 168 % of control; (endpoint: median survival time, dose: 18.0 mg/kg/injection, schedule: Q01DX011 (ip), vehicle: saline, higher = longer survival) 166 % of control.
As for `Cc1ccc2c(ccc(C)[n+]2C)c1`, the T/C was 86 % of control (endpoint: mean tumor weight (est.), dose: 37.5 mg/kg/injection, schedule: Q01DX011 (ip), vehicle: saline, higher = larger tumour) and 86 % of control (endpoint: mean tumor weight (est.), dose: 75.0 mg/kg/injection, schedule: Q01DX011 (ip), vehicle: saline, higher = larger tumour).
